| melting point | Compound |
| --- | --- |
| 129 to 133 °C | COC[C@@H]1CN(CCN2CCN(C(=O)c3cc(C(F)(F)F)cc(C(F)(F)F)c3)[C@H](Cc3ccc(F)cc3)C2)CCO1.Cl.Cl |
| 159 to 170 °C | CNc1cc(C(=O)N2CCN(CCN3CCO[C@H](COC)C3)C[C@H]2Cc2ccc(C)c(O)c2)cc(C(F)(F)F)c1.Cl.Cl |
| 159 to 170 °C | COC[C@@H]1CN(CCN2CCN(C(=O)c3cc(-n4cccc4)cc(C(F)(F)F)c3)[C@H](Cc3ccc(C)c(O)c3)C2)CCO1.Cl.Cl |
| 150 to 170 °C | COC[C@@H]1CN(CCCN2CCN(C(=O)c3cc(C(F)(F)F)cc(C(F)(F)F)c3)[C@H](Cc3ccc(C)c(O)c3)C2)CCO1.Cl.Cl |
| 150 to 180 °C | COC[C@@H]1CN(CCN2CCN(C(=O)c3cc(C(F)(F)F)cc(C(F)(F)F)c3)C(Cc3ccc(C)c(O)c3)C2)C(C)(C)CO1.Cl.Cl (stereo partly shown) |
| 160 to 165 °C | COC[C@@H]1CN(CCN2CCN(C(=O)c3cc(C(F)(F)F)cc(C(F)(F)F)c3)[C@H](Cc3ccc(C)c(N4CCCC4)c3)C2)CCO1.Cl.Cl.Cl |
| 163 to 178 °C | COc1cc(C[C@@H]2CN(CCN3CC4CCC(C3)O4)CCN2C(=O)c2cc(C(F)(F)F)cc(C(F)(F)F)c2)ccc1F.Cl.Cl |
| 215 to 231 °C | CC1(C)CN(CCN2CCN(C(=O)c3cc(C(F)(F)F)cc(C(F)(F)F)c3)[C@H](Cc3ccc(C(F)(F)F)cc3)C2)CCO1.Cl.Cl |
| 152 to 162 °C | COc1cc(C[C@@H]2CN(CCN3CCOC(C)(C)C3)CCN2C(=O)c2cc(C(F)(F)F)cc(C(F)(F)F)c2)ccc1F.Cl.Cl |
| 128 to 134 °C | COC[C@@H]1C[C@@H](OC)CN1CCN1CCN(C(=O)c2cc(C(F)(F)F)cc(C(F)(F)F)c2)[C@H](Cc2ccc(F)c(OC)c2)C1.Cl.Cl |
| 139 to 148 °C | COC[C@H]1CN(CCN2CCN(C(=O)c3cc(C(F)(F)F)cc(C(F)(F)F)c3)[C@H](Cc3ccc(F)c(OC)c3)C2)CCO1.Cl.Cl |
| 146 to 149 °C | COC[C@@H]1CN(CCN2CCN(C(=O)c3cc(C(F)(F)F)cc(C(F)(F)F)c3)[C@H](Cc3ccc(OC)cc3)C2)CCO1.Cl.Cl |
| 56.59 °C | COC[C@@H]1C[C@@H](OC)CN1CCN1CCN(C(=O)c2cc(C(F)(F)F)cc(C(F)(F)F)c2)[C@H](Cc2ccc(C(F)(F)F)cc2)C1.Cl.Cl |
| 147 to 151 °C | COC[C@H]1CCC[C@@H](COC)N1CCN1CCN(C(=O)c2cc(C(F)(F)F)cc(C(F)(F)F)c2)[C@H](Cc2ccc(C(F)(F)F)cc2)C1.Cl.Cl |
| 139 to 142 °C | COC[C@@H]1CN(CCN2CCN(C(=O)c3cc(Cl)cc(C(F)(F)F)c3)[C@H](Cc3ccc(F)c(OC)c3)C2)CCO1.Cl.Cl |
| 140 to 146 °C | COC[C@@H]1CN(CCN2CCN(C(=O)c3cc(SC)cc(C(F)(F)F)c3)[C@H](Cc3ccc(Cl)cc3)C2)CCO1.Cl.Cl |
| 199 to 204 °C | COC[C@@H]1CN(CCN2CCN(C(=O)c3cc(F)cc(C(F)(F)F)c3)[C@H](Cc3ccc(Cl)cc3)C2)CCO1.Cl.Cl |
| 173 to 176 °C | COC[C@@H]1CN(CCN2CCN(C(=O)c3cc(F)cc(C(F)(F)F)c3)[C@H](Cc3ccc(C(F)(F)F)cc3)C2)CCO1.Cl.Cl |
| 176 to 178 °C | COC[C@@H]1CN(CCN2CCN(C(=O)c3cc(F)cc(C(F)(F)F)c3)[C@H](Cc3ccc(Cl)c(O)c3)C2)CCO1.Cl.Cl |
| 205 to 208 °C | COc1cc(C[C@@H]2CN(CCN3C[C@@H](C)O[C@@H](C)C3)CCN2C(=O)c2cc(C(F)(F)F)cc(C(F)(F)F)c2)ccc1F.Cl.Cl |
| 160 to 169 °C | COC[C@@H]1CN(CCN2CCN(C(=O)c3cc(C(F)(F)F)cc(C(F)(F)F)c3)[C@H](Cc3ccc(Cl)c(O)c3)C2)CCO1.Cl.Cl |
| 148 to 159 °C | C[C@@H]1CN(CCN2CCN(C(=O)c3cc(C(F)(F)F)cc(C(F)(F)F)c3)[C@H](Cc3ccc(C(F)(F)F)cc3)C2)C[C@H](C)O1.Cl.Cl |
| 139 to 151 °C | COc1cc(C(=O)N2CCN(CCN3C[C@@H](C)O[C@@H](C)C3)C[C@H]2Cc2ccc(C(F)(F)F)cc2)cc(C(F)(F)F)c1.Cl.Cl |
| 90 to 120 °C | COC[C@@H]1CN(CCN2CCN(C(=O)c3cc(C(F)(F)F)cc(C(F)(F)F)c3)[C@H](Cc3ccc(Cl)cc3)C2)CCO1.Cl.Cl |
| 250 to 255 °C | Cl.Cl.O=C(c1cc(C(F)(F)F)cc(C(F)(F)F)c1)N1CCN(CCN2CCC(F)(F)CC2)C[C@H]1Cc1ccc(Cl)cc1 |
| 70 to 90 °C | COC[C@@H]1CN(CCN2CCN(C(=O)c3cc(OC)cc(C(F)(F)F)c3)[C@H](Cc3ccc(Cl)cc3)C2)CCO1.Cl.Cl |
| 89 to 110.2 °C | C[C@@H]1CN(CCN2CCN(C(=O)c3cc(C(F)(F)F)cc(C(F)(F)F)c3)[C@H](Cc3ccc(F)cc3)C2)C[C@H](C)O1.Cl.Cl |
| 160 to 168 °C | COC[C@@H]1CN(CCN2CCN(C(=O)c3cc(OC)cc(C(F)(F)F)c3)[C@H](Cc3ccc(Cl)c(O)c3)C2)CCO1.Cl.Cl |

More lines, now with the values behind:

| Compound | melting point |
| --- | --- |
| Cl.Cn1cc(CN2CCN(C(=O)c3cc(C(F)(F)F)cc(C(F)(F)F)c3)[C@H](Cc3ccc(Cl)cc3)C2)cn1 | 210 to 245 °C (dec.) |
| COc1cc(C(=O)N2CCN(Cc3cccnc3)C[C@H]2Cc2ccc(Cl)cc2)cc(C(F)(F)F)c1.Cl.Cl | 60 to 80 °C |
| COc1cc(C(=O)N2CCN(CCCc3cccnc3)C[C@H]2Cc2ccc(Cl)cc2)cc(C(F)(F)F)c1.Cl.Cl | 60 to 100 °C |
| COc1cc(C(=O)N2CCN(Cc3cnn(C)c3)C[C@H]2Cc2ccc(F)cc2)cc(C(F)(F)F)c1.Cl | 225.6 to 228.4 °C |
| COc1cc(C(=O)N2CCN(Cc3cccnc3)C[C@H]2Cc2ccc(F)cc2)cc(C(F)(F)F)c1.Cl.Cl | 81.4 to 84.3 °C |
| Cl.Cl.O=C(c1cc(C(F)(F)F)cc(C(F)(F)F)c1)N1CCN(Cc2cccnc2)C[C@H]1Cc1ccc2ccccc2c1 | 198 to 208 °C |
| Cl.Cn1cc(CN2CCN(C(=O)c3cc(C(F)(F)F)cc(C(F)(F)F)c3)[C@H](Cc3ccc(Cl)c(O)c3)C2)cn1 | 159 to 163 °C |
| COc1cc(C(=O)N2CCN(Cc3cnn(C)c3)C[C@H]2Cc2ccc(C(F)(F)F)cc2)cc(C(F)(F)F)c1.Cl | 218 to 223 °C |
| COc1cc(C(=O)N2CCN(Cc3cccnc3)C[C@H]2Cc2ccc(Cl)c(O)c2)cc(C(F)(F)F)c1.Cl.Cl | 215 to 224 °C |
| Cc1ccc(C[C@@H]2CN(CCc3cccnc3)CCN2C(=O)c2cc(C(F)(F)F)cc(C(F)(F)F)c2)cc1O.Cl.Cl | 90 to 120 °C |
| Cc1ccc(C[C@@H]2CN(C/C=C\c3cccnc3)CCN2C(=O)c2cc(C(F)(F)F)cc(C(F)(F)F)c2)cc1O.Cl.Cl | 85 to 130 °C |
| C[C@@H]1CN(CCN2CCN(C(=O)c3cc([N+](=O)[O-])cc(C(F)(F)F)c3)[C@H](Cc3ccc(Cl)cc3)C2)C[C@H](C)O1.Cl.Cl | 133.3 to 136.2 °C |
| C[C@@H]1CN(CCN2CCN(C(=O)c3cc(N(C)C)cc(C(F)(F)F)c3)[C@H](Cc3ccc(Cl)cc3)C2)C[C@H](C)O1.Cl.Cl | 148.2 to 153.3 °C |
| C[C@@H]1CN(CCN2CCN(C(=O)c3cc(C(F)(F)F)cc(S(C)(=O)=O)c3)[C@H](Cc3ccc(Cl)cc3)C2)C[C@H](C)O1.Cl.Cl | 138.4 to 142.5 °C |
| CS(=O)(=O)c1cc(C(=O)N2CCN(CCN3CCc4ncccc4C3)C[C@H]2Cc2ccc(Cl)cc2)cc(C(F)(F)F)c1.Cl.Cl.Cl | 198 to 213 °C |
| CN(C)S(=O)(=O)c1cc(C(=O)N2CCN(CCN3CCc4ncccc4C3)C[C@H]2Cc2ccc(Cl)cc2)cc(C(F)(F)F)c1.Cl.Cl.Cl | 209 to 226 °C |
| Cl.Cl.Cl.O=C(c1cc(-n2cccc2)cc(C(F)(F)F)c1)N1CCN(CCN2CCc3ncccc3C2)C[C@H]1Cc1ccc(Cl)cc1 | 184 to 191 °C |

| Compound | melting point |
| --- | --- |
| Cc1ccc(C[C@@H]2CN(Cc3nc(N)no3)CCN2C(=O)c2cc(C(F)(F)F)cc(C(F)(F)F)c2)cc1O.Cl.Cl | 160 to 170 °C |
| COc1cc(C[C@@H]2CN(CCN3C[C@H](OC)[C@@H](OC)C3)CCN2C(=O)c2cc(C(F)(F)F)cc(C(F)(F)F)c2)ccc1F.Cl.Cl | 112 to 120 °C |
| CSc1cc(C(=O)N2CCN(CCN3CCc4ncccc4C3)C[C@H]2Cc2ccc(C(F)(F)F)cc2)cc(C(F)(F)F)c1.Cl.Cl | 190 to 210 °C |
| COc1cc(C[C@@H]2CN(CCN3C[C@@H](C)O[C@@H](C)C3)CCN2C(=O)c2cc(SC)cc(C(F)(F)F)c2)ccc1F.Cl.Cl | 62.5 to 82.4 °C |
| COc1cc(C[C@@H]2CN(CCN3C[C@@H](C)O[C@@H](C)C3)CCN2C(=O)c2cc(-c3ccncc3)cc(C(F)(F)F)c2)ccc1F.Cl.Cl.Cl | 137.6 to 142.5 °C |
| COc1cc(C(=O)N2CCN(CC#CCN3CCOCC3(C)C)C[C@H]2Cc2ccc(Cl)c(O)c2)cc(C(F)(F)F)c1.Cl.Cl | 187 to 195 °C |
| COc1cc(C(=O)N2CCN(CCN3CCc4ncccc4C3)C[C@H]2Cc2ccc(Cl)c(O)c2)cc(C(F)(F)F)c1.Cl.Cl.Cl | 225 to 240 °C (dec.) |
| COc1cc(C[C@@H]2CN(CCN3CCC(F)(F)CC3)CCN2C(=O)c2cc(C(F)(F)F)cc(C(F)(F)F)c2)ccc1F.Cl.Cl | 240 to 243 °C |
| Cl.Cl.O=C(c1cc(C(F)(F)F)cc(C(F)(F)F)c1)N1CCN(CCN2CCC(F)(F)CC2)C[C@H]1Cc1ccc(F)c(O)c1 | 190 to 200 °C |
| Cl.Cl.O=C(c1cc(C(F)(F)F)cc(C(F)(F)F)c1)N1CCN(CCCc2cccnc2)C[C@H]1Cc1ccc(F)c(F)c1 | 215 to 220 °C |
| COc1cc(C[C@@H]2CN(CCN3C[C@@H](C)O[C@@H](C)C3)CCN2C(=O)c2cc(C(F)(F)F)cc(C(F)(F)F)c2)ccc1C(F)(F)F.Cl.Cl | 160 to 170 °C |
| COc1cc(C(=O)N2CCN(CCN3C[C@@H](C)O[C@@H](C)C3)C[C@H]2Cc2ccc(C(F)(F)F)c(OC)c2)cc(C(F)(F)F)c1.Cl.Cl | 125 to 135 °C |
| COc1cc(C(=O)N2CCN(CC#CCN3CCOCC3(C)C)C[C@H]2Cc2ccc(Cl)cc2)cc(C(F)(F)F)c1.Cl.Cl | 110 to 140 °C |
| COc1cc(C(=O)N2CCN(CC#CCN3CCOCC3(C)C)C[C@H]2Cc2ccc(F)cc2)cc(C(F)(F)F)c1.Cl.Cl | 137.5 to 140.7 °C |
| COc1cc(C(=O)N2CCN(CCN3CCC(F)(F)CC3)C[C@H]2Cc2ccc(F)cc2)cc(C(F)(F)F)c1.Cl.Cl | 258.4 to 261.4 °C |
| COc1cc(C(=O)N2CCN(CCN3CCc4ncccc4C3)C[C@H]2Cc2ccc(F)cc2)cc(C(F)(F)F)c1.Cl.Cl.Cl | 148.7 to 152.3 °C |

— patent publication US7166598B2, “Piperazine derivatives” (Astellas Pharma Inc., priority 1998, dated 2007)
